Measurements: patent publication EP2119770B1, “Production of alpha-oxyfunctionalized carbonyl compounds” (priority 2008, dated 2009)

What was measured:
Assay type in all cases: biochemical
Gox0646 = biological target: T1, Gox0646 (Gluconobacter oxydans, UniProt Q5FT73); test: Enzyme activity assay (rate of NAD(P)H decrease at 340 nm), Gox0646; settings: 10 mM substrate; for Specific Activities: Tab. 9, GOX0646, cofactor NADPH, pH 7.0, 30 °C; for Activity: Table 3, Gox0646, K-phosphate buffer pH 7.0, 0.05 mM NAD(P)H, 30 °C
T1 sequence (Q5FT73 1-264): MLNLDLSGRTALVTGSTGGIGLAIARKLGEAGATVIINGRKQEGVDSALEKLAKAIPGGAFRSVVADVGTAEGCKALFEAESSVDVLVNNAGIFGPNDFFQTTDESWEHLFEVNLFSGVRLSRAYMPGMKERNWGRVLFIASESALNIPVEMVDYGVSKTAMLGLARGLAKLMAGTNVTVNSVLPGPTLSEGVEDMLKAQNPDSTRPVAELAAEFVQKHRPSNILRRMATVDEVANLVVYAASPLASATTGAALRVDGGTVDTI
Method: Measurment of enzyme activity: NADPH-dependent alpha-ketocarbonyl reductases were assayed by a routine method used for NAD(P)-linked enzymes by recording the rate of decrease of NADPH at 340 nm (ε = 6.22 mM^-1 x cm^-1)) with substrates at 30 °C. The reaction mixture (1 ml) for reduction of alpha-ketocarbonyl substrates contained 10 mM substrate, 40 mM potassium phosphate buffer pH 7.0, 0.025 mM NAD(P)H , and the enzyme. Reactions were induced by addition of enzyme or substrate. One unit of enzyme activity was defined as the amount of enzyme catalyzing the conversion of 1 µmol of pyridine nucleotide per min at 30 °C.
NADPH-dependent α-ketocarbonyl reductases were assayed by a routine method used for NAD(P)-linked enzymes by recording the rate of decrease of NADPH at 340 nm (ε = 6.22 mM^-1.cm^-1) with substrates at 30 °C. The reaction mixture (1 ml) for reduction of alpha-ketocarbonyl substrates contained 10 mM substrate, 40 mM potassium phosphate buffer pH 7.0, 0.025 mM NADPH , and the enzyme. Reactions were induced by addition of enzyme or substrate. One unit of enzyme activity was defined as the amount of enzyme catalyzing the conversion of 1 µmol of pyridine nucleotide per min at 30 °C.
For each enzyme (Gox0313, Gox0502, Gox0644, Gox0646, Gox1615, Gox2107, and Gox2684 respectively), fresh enzyme preparations were used to validate the substrate spectrum and the kinetic activity. […] Purified NAD(P)-dependent oxidoreductases were assayed at 30 °C by a routine method used for NAD(P)-linked enzymes by recording the rate of decrease of NAD(P)H at 340 nm (ε = […]) with substrates capable of reduction reactions. The standard reaction mixture (1 ml) for the reduction reactions of substrates contained 10 mM substrate, 40 mM potassium phosphate buffer (K-phosphate buffer) pH 7.0, 0.05 mM NAD(P)H, and the enzyme unless otherwise noted. Reactions were induced by addition of enzyme or substrate. One unit of enzyme activity was defined as the amount of enzyme catalyzing the conversion of 1 µmol of pyridine nucleotide per min at 30 °C. Measurement of the protein content was performed by the method of Bradford in Anal. Biochem. 72:248-254 (1976). Table 3: Summary of enzymatic activities with α-diketones, α-ketoaldehydes and /or α-ketoesters

Gox0502 = biological target: T2, Gox0502 (Gluconobacter oxydans, UniProt Q5FTL6); test: Enzyme activity assay (rate of NAD(P)H decrease at 340 nm), Gox0502; design: Strep-tag II (N); made in house; host or cells: E. coli BL21 or E. coli DH5α (pASK-IBA5); settings: 10 mM substrate; for Specific Activity: Tab. 7, Gox0502, cofactor NADPH, pH 7.0, 30 °C; for Activity: Table 3, Gox0502, K-phosphate buffer pH 7.0, 0.05 mM NAD(P)H, 30 °C
T2 sequence (Q5FTL6 1-361): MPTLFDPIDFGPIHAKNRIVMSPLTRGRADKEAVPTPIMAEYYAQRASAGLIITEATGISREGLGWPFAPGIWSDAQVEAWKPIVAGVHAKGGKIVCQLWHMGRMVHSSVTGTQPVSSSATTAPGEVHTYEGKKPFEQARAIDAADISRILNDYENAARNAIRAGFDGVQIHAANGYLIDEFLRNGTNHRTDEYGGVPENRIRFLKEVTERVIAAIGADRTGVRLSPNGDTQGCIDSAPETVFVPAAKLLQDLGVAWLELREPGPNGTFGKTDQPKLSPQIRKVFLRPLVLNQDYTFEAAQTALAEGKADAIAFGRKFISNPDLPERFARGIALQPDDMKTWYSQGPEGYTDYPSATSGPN
How it was run: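 Purified enzymes assayed at 30 °C in 40 mM potassium phosphate pH 7.0 with 10 mM substrate and NAD(P)H (0.025 mM, or 0.05 mM in the standard mixture), started by adding enzyme or substrate. Activity followed as the rate of NAD(P)H decrease at 340 nm; one unit = 1 µmol pyridine nucleotide converted per min; protein measured by Bradford.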

Gox0644 = Gox0644 (Gluconobacter oxydans, UniProt Q5FT75); test: Regioselectivity of bioconversion, product determined by NMR, Gox0644; settings: bioconversion with Gox1122 cofactor regeneration, NMR analysis
Description: Cofactor regeneration: A prerequisite for the production of α-hydroxycarbonyl compounds is the regeneration of the expensive coenzymes and the stability of the protein catalysts. By coupling two coenzyme-dependent enzyme reactions, NADPH can be continuously regenerated. […] For this purpose, we used a combined enzymatic reaction between the NADPH-dependent oxidoreductases that form α-hydroxycarbonyl compounds and the aldehyde dehydrogenase GOX1122 (see Schweiger, P. et al., J. Mol. Microbiol. Biotechnol. 13:147-155 (2007)) that produces the reduced cofactor in the course of acetaldehyde oxidation. […] The biotransformation was performed in a batch process (total volume 2.5 ml 40 mM potassium phosphate buffer pH 7). 30 µg of purified Gox1122 and of NADPH-dependent oxidoreductases and 50 µM NADPH were added. The substrate concentration in the beginning was 20 mM 2,3-pentanedione and 20 mM acetaldehyde. Fresh substrates were added every 60 min (20 mM each).
NMR: The 2.5 ml bioconversion was extracted with two times equal volume of d-chloroform. ^1H and ^13C NMR spectra were recorded on a DPX 300 Spectrometer (300 MHz) and referenced to the CDCl3 internal standard. Chemical samples analyzed with Bruker NMR Suite 2.5 software constructed final product structures.
2.7 Regioselectivity of GOX0644 and GOX1615: Tab. […] Tab. 10: Summary of Regioselectivity
5 ml bioconversions for determining regioselectivity were set up with 2 mg of proteins Gox0644 and Gox1122, 40 mM potassium phosphate buffer, pH 7.0, 50 µM NADPH. Substrates (20 mM 2,3 pentanedione and acetaldehyde) were added every 30 min. The reaction was followed for 3 h to produce quantities between 40-60 mg of product (hydroxy-pentanone).

Row | Product (regioselective reduction) (Gox0644) | SMILES | Specific Activities (Gox0646) [U/mg] | Activity (Gox0646) [U/mg] | Specific Activity (Gox0502) | Activity (Gox0502) [U/mg] | Product (regioselective reduction) (Gox0644; listed as 2,3 pentanedione)
1 | – | CCC(=O)C(=O)CC [3,4-hexanedione] | 2.0 | 2.0 | 2,0 U/mg | 2.0 | –
2 | 2-hydroxy-hexane-3-one | CCCC(=O)C(C)=O [2,3-hexanedione] | 8.0 | 8.0 | 1.0 U/mg | – | –
3 | 2-hydroxy-2-phenylacetaldehyde | O=CC(=O)c1ccccc1 [phenylglyoxal] | – | – | 15.7 U/mg | 15.7 | –
4 | – | CC(=O)C=O [methylglyoxal] | 0.2 | 0.2 | 1.5 U/mg | – | –

Row | SMILES | Product (regioselective reduction) (Gox0644) | Specific Activities (Gox0646) [U/mg] | Activity (Gox0646) [U/mg] | Specific Activity (Gox0502) | Activity (Gox0502) [U/mg] | Product (regioselective reduction) (Gox0644; listed as 2,3 pentanedione)
5 | CCC(=O)C(C)=O [2,3-pentanedione] | 2-hydroxy-pentane-3-one | 8.0 | 8.0 | – | – | 2-hydroxy-pentan-3-one
